Entries after “also recorded” stand apart in the source; their conditions may differ. Where a name gives a salt, the structure may show the parent alone. Read-outs that look alike come from different tables or passages of the source.
Experiments:
MDCK cells [1] = tested on: MDCK cells
MDCK cells [2] = test: crystal violet cell adhesion (CVCA) cell toxicity assay; settings: Canis lupus familiaris, MDCK
MDCK cells [3] = test: imaging of intracellular CO in living cells with fluorescent probe COP-1; assay type: cell-based, Canine; settings: 10-50 μM, 37° C. and 8° C., bis-trifluoroacetate Salt
Description: A palladium CO-responsive small-molecule fluorescent probe (COP-1) was synthesised and carbonylation of the probe by CO confirmed as previously described.^41 A final concentration of 2 nM of COP-1 was added to each well of a 96-well plate containing 200 μL of Mg^2+ and Ca^2+ free phosphate solution (DPS, 37° C.). CORM-2, oCOm-19 and oCOm-21 (1-100 μM) were added to wells in triplicate, and zeroed against an equivalent volume of vehicle control added to COP-1. Emission spectra (λ 400-600 nm) were recorded at regular time intervals for one hour using a Spectromax Gemini fluorescent plate reader (Molecular Devices, Crawley, UK) at 37° C., (λex 475 nm, and the λem500 nm measured).
The ability of the CO donors to increase intracellular levels of CO was tested in Madin Darby Canine Kidney (MDCK) cells. […] Cells were incubated for 1 hour at either 8 or 37° C. then 1 μM COP-1 in DPS added per well and cells incubated for a further 15 minutes. Cells were imaged on a fluorescent inverted microscope (Nikon Eclipse Ti-E).

[4] = CO release by HPLC analysis of breakdown of CO donor to its CO depleted form; assay type: physicochemical
Description: HPLC grade acetonitrile (CH3CN) was purchased from Merck Chemicals. MilliQ grade H2O was obtained from a Millipore purification system. HPLC grade trifluoroacetic acid (TFA) was purchased from Scharlau. HPLC analyses were conducted on an analytical RP-HPLC (Shimadzu LC-20AD equipped with an SPD-20A UV detector [210 and 254 nm]) using a Phenomenex Prodigy column (C-18, 5 μm, 3.00×250 mm) at 0.5 mL/min and heated to 40° C. Unless otherwise stated, the solvent system for all LC purposes was a mixture of A (0.05% TFA in H2O) and B (CH3CN). The method used was 10% to 100% B over 12.5 min, then 100% B for 2.5 min, unless otherwise stated.
In addition, the rate of CO release was measured in different physiological solutions at pH 7.4, 37° C.: phosphate buffered saline (PBS), Tris-sucrose buffer and UW solution using an amperiometric CO selective electrode (ISO-COP-2, World Precision Instruments (WPI), Inc, Sarasota, USA). The amount of CO released was recorded as the magnitude of electrode current generated on CO diffusion through a selective gas permeable membrane and oxidised to CO2 on the electrode. Current changes were recorded using a WPI TRB4100 4-channel free radical analyser with the poise potential set to 950 mV. […] The effect of pH upon the release of CO was assessed by adjusting the pH of Tris sucrose buffer to pH 6.6 using HCl and to pH 8.5 using NaOH. […]

cardiac tissue = test: static storage of cardiac tissue sections, TTC tissue viability stain; set-up: species or system Sprague Dawley (SD) rats; settings: 3 μM in DMEM; 24 and 48 hours cool static storage
Description: The following protocol was used to assess the ex vivo protective effects of the oCOm compounds in solid, non-perfused biological tissues. Male Sprague Dawley (SD) rats (280-310 g) were decapitated and the hearts rapidly excised. Hearts were cut into 1 mm thick sections and placed in 3 ml of DMEM in sterile 24 well tissue culture plates. Two tissues sections from each heart were immediately stained without storing, with 1% 2,3,5-Triphenyltetrazolium chloride (TTC) in glucose supplemented DMEM for 15 minutes at 37° C. with continuous shaking. Theses tissues represent the baseline tissue viability prior to storage. This staining technique requires active dehydrogenase enzymes to be present in order to convert TCC to a brick red formazan pigment. […] Tissues were then stained with TTC and fixed as above. One control tissue section was left unstained for comparison. All samples were sectioned transversely, photographed and staining intensity assessed qualitatively.

horse heart myoglobin = test: carboxymyoglobin spectrophotometric assay (CO binding to myoglobin); assay type: biochemical; settings: 25 to 400 μM; 5 to 90 minutes
Description: CO released from oCOm-19 and oCOm-21 was measured using an established carboxymyoglobin spectrophotometric assay,^39 adapted to a 96 well plate format to enable the simultaneous correction at all absorbance wavelengths arising from any potential interference from the donor compounds.^40 Freshly prepared horse heart myoglobin (66 μM) in a PBS solution (pH 7.4) was reduced with 10% w/v sodium dithionite and added to a 96 well plate. […] Absorption spectra (λ 500-600 nm) were run at ten minute intervals using a Spectramax 96-well spectrophotometer (Molecular Devices, Crawley, UK) at 37° C. CO gas saturated PBS (714 μM), was employed as a positive control.

[5] = oral bioavailability: blood carboxyhaemoglobin after oral gavage; assay type: in vivo, Sprague Dawley rats
Description: Male Sprague Dawley rats (300-320 g) were orally dosed with either oCOm-19 (133.33 μmol/kg) or oCOm-21 (33.33 μmol/kg) in ultra-pure water by oral gavage. Animals were observed every 15 minutes for any changes in behaviour or signs of distress. Tail vein blood samples were collected in heparinised capillary tubes immediately prior to and at 1-3 hours post CO-donor administration. Blood gas analysis on each sample was performed using a Radiometer ABL800 Flex analyser.

[6] = tested on: isolated rat aortic rings; test: isolated rat aortic ring vasorelaxation; set-up: species or system Lewis rats; settings: rings pre-contracted with phenylephrine; 37° C.; hydrochloride
Description: Transverse ring sections of aorta were isolated from male Lewis rats ([…], n=5-6 per group) under halothane anaesthesia and suspended under 2 g tension in an organ bath containing 10 mL of oxygenated (95% O2/5% CO2) Krebs Henseleit (KH) buffer containing 118 mM NaCl, 4.7 mM KCl, 1.2 mM KH2PO4, 1.2 mM MgSO4.7H2O, 22 mM NaHCO3, 11 mM glucose, 0.03 mM K^+ EDTA, and 2.5 mM CaCl2 as previously described.^43 Indomethacin (10 μM) was present in the buffer to exclude endogenous prostaglandins as potential modulators of vascular tone. Relaxation responses to oCOm-19 or oCOm-21 ([…]) were assessed using individual dosing in tissues pre-contracted with phenylephrine (0.1 μM). All results were subsequently expressed as a percentage of the maximal phenylephrine-induced contraction. Following repeat wash steps with Krebs Henseleit buffer, smooth muscle function and viability was confirmed by repeating the contractile response to phenylephrine. Aortic responses to individual EC50 concentrations of either CO donor in phenylephrine vasoconstricted rings were repeated separately, in the presence of the CO-chelator, myoglobin (5 μM) and the selective, irreversible inhibitor of sGC 1H-(1,2,4)oxadiazolo[4,3-a]quinoxalin-1-one, (ODQ, 10 μM), as previously described.^44

Solubility in water = assay type: physicochemical
[7] = read-out: EC50 (μM), Active Compound

Structure (SMILES): CC12C(=O)C(C)(C(c3ccccc3)=C1c1ccccc1)C1(Br)C(=O)N(CCNCCN)C(=O)C21 (centres unmarked) [oCOm-23, 2-(2-(2-Aminoethyl)aminoethyl)-3a-bromo-3a,4,7,7a-tetrahydro-4,7-dimethyl-5,6-diphenyl-4,7-methano-1H-isoindole-1,3,8(2H)-trione bis-trifluoroacetate Salt]
- cellular toxicity (in words) (MDCK cells [1]): increased toxicity
- EC50 (MDCK cells [2]; [7]): 10.1 µM
- EC50 (MDCK cells [2]; read-out: EC50 (μM), Active Compound at 8° C.): > 200 µM
- intracellular CO, COP-1 / BODIPY fluorescence (in words) (MDCK cells [3]): Increased BODIPY fluorescence intensity; also recorded: increased intracellular CO levels
- time by which 50% of the donor CO maximum release capacity was depleted [4]: 75 min

Structure (SMILES): CC12C(=O)C(C)(C(c3ccccc3)=C1c1ccccc1)C1C(=O)N(CCN)C(=O)C12.O=C(O)C(F)(F)F (centres unmarked) [DB-21, 2-(4,7-Dimethyl-1,3,8-trioxo-5,6-diphenyl-3a,4,7,7a-tetrahydro-1H-4,7-methanoisoindol-2(2H)-yl)ethanaminium 2,2,2-trifluoroacetate]
- tissue viability by TTC (formazan) staining (in words) (cardiac tissue): little staining was visible

Structure (SMILES): CC12C(=O)C(C)(C(c3ccccc3)=C1c1ccccc1)C1(Br)C(=O)N(CCC(=O)NCCN)C(=O)C21.Cl (centres unmarked) [oCOm-19, N-(2-Aminoethyl)-3-(3a-bromo-4,7-dimethyl-1,3,8-trioxo-5,6-diphenyl-3a,4,7,7a-tetrahydro-1H-4,7-methanoisoindol-2(2H)-yl)propanamide hydrochloride]
- carbonmonoxymyoglobin formation (in words) (horse heart myoglobin): time- and concentration-dependent increase in carbonmonoxymyoglobin formation
- EC50 (MDCK cells [2]; [7]): 86 µM
- effect on circulating carboxyhaemoglobin (in words) ([5]; oCOm-19 and DB-13 133.3 μmol/kg, oCOm-21 33.3 μmol/kg, hydrochloride): increase in circulating carboxyhaemoglobin
- behaviour / signs of distress after oral dosing ([5]; observed every 15 minutes): body pressing behaviour indicative of abdominal discomfort
- vasorelaxant response (in words) [6]: reversible, concentration-dependent vasorelaxant responses; also recorded: reversible, concentration-dependent vasorelaxation; also recorded: vasorelaxant effects
- solubility (in words) (Solubility in water; water or physiological buffers): water soluble
- Solubility in water at 21° C. (Solubility in water; water, 21° C.): 3200 µg/mL
- time by which 50% of the donor CO maximum release capacity was depleted [4]: 40 min

From patent US11072584B2, “Carbon monoxide releasing norbornenone compounds” (OTAGO INNOVATION LIMITED, priority 2015, dated 2021)
